From patent US20260374739A1, “SMALL MOLECULAR WEIGHT CHEMICAL COMPOUND TO ANTAGONIZE EPH-EPHRIN TETRAMERIZATION AND INHIBIT BIDIRECTIONAL SIGNALING” (THE BOARD OF REGENTS OF THE UNIVERSITY OF TEXAS SYSTEM, priority 2022, published 2026) come the findings set out here.

The target of one assay is T1, EphrinB2-EphB4 (Homo sapiens, UniProt P54760).
T1 construct: soluble human EphB1-His, EphB2-His, and EphB4-His ectodomains; commercially available human EphrinB1-Fc (EB1), EphrinB2-Fc (EB2), and EphrinB3-Fc (EB3) ectodomain proteins; purchased
T1 sequence (P54760 16-539 limits assumed): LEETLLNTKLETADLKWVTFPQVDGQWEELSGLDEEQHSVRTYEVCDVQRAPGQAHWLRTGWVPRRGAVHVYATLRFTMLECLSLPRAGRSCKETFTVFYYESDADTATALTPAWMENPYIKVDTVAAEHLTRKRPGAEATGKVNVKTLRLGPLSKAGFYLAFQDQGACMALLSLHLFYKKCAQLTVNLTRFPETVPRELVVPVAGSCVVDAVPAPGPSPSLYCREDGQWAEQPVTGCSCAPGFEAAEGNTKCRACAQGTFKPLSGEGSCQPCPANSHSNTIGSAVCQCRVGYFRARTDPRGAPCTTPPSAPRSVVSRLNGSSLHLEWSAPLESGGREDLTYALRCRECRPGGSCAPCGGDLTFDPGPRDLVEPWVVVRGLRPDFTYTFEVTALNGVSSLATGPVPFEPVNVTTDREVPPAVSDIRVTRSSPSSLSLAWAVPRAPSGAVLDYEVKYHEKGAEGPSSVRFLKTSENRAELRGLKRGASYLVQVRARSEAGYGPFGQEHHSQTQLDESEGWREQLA
The assay is described as follows: Octet 80 sec association/500 sec dissociation, immobilized human EphrinB2-Fc binding to soluble human EphB4-His. The following applies: for EphB4 Inhibition Percent, Inhibition of Association ONLY: at 3.2 μM and 80 seconds; for EphB4 Inhibition Percent, Inhibition of Association ONLY / EphB4 Inhibition Percent, Inhibition of Association-Dissociation: immobilized human EphrinB2, 25 nM soluble human EphB4; for EphB4 Inhibition Percent, Inhibition of Association-Dissociation: at 3.2 μM and 580 seconds; for inhibition at 3.2 µM: EphB4, 25 nM EphB4, 3.2 μM compound, A20-I as max control, 0* = less than 0, no inhibition. Put shortly: (§1)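 EphrinB2-Fc captured on AHC biosensors, then soluble His-tagged EphB ectodomain (25 nM for % inhibition runs) associated 80 s and dissociated 500 s in PBS, 0.05% Tween-20, 1% DMSO ± compound. Compounds tested at 0.1–3.2 μM with a 10 μM max standard; IC50 from AUC of full traces or at 75 s and 135 s.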

Assay [1] has as its target T2, EphrinB2-EphB2 (Homo sapiens, UniProt P29323).
T2 construct: soluble human EphB1-His, EphB2-His, and EphB4-His ectodomains; commercially available human EphrinB1-Fc (EB1), EphrinB2-Fc (EB2), and EphrinB3-Fc (EB3) ectodomain proteins; purchased
T2 sequence (P29323 19-543 limits assumed): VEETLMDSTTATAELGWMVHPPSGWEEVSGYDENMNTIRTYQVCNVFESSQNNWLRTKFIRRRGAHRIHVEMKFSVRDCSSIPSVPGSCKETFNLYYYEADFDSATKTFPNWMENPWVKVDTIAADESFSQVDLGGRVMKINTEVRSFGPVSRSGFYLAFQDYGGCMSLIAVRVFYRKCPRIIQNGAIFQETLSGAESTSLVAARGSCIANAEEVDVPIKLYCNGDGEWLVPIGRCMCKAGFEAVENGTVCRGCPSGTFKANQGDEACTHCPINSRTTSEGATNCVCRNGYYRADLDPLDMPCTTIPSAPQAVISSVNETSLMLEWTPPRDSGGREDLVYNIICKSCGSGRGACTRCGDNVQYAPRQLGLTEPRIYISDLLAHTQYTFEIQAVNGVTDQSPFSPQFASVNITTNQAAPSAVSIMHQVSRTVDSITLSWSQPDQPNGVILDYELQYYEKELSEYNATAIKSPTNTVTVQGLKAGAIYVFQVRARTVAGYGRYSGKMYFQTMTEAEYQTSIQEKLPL
The assay is described as follows: Octet tetramerization inhibition, immobilized human EphrinB2 binding to 50 nM soluble human EphB2.

For assay [2], the target named is T2, EphrinB2-EphB2. Nature of the assay: Octet 80 sec association/500 sec dissociation, immobilized human EphrinB2-Fc binding to soluble human EphB2-His. The following applies: for EphB2 Inhibition Percent, Inhibition of Association ONLY: at 3.2 μM and 80 seconds; for EphB2 Inhibition Percent, Inhibition of Association ONLY / EphB2 Inhibition Percent, Inhibition of Association-Dissociation: immobilized human EphrinB2, 25 nM soluble human EphB2; for EphB2 Inhibition Percent, Inhibition of Association-Dissociation: at 3.2 μM and 580 seconds. Put shortly: as §1

Setting [3] is: Absolute AUC/IC50, Table A, EphrinB2-EphB2.
Setting [4] is: Absolute Association IC50 (300 sec), Table A, EphrinB2-EphB2.
[5] abbreviates: Absolute Dissociation IC50 (450 sec), Table A, EphrinB2-EphB2.
Setting [6] is: Relative AUC/IC50, Table A, EphrinB2-EphB2, compound 7: association only.
Where [7] appears, read: Relative Association IC50 (300 sec), Table A, EphrinB2-EphB2.
[8] abbreviates: Relative Dissociation IC50 (450 sec), Table A, EphrinB2-EphB2.
Where [9] appears, read: EphB2, 25 nM EphB2, 3.2 μM compound, A20-I as max control, 0* = less than 0, no inhibition, listed as A19-NO2 (B).

Several values for one entry are separate records, joined by “and”; a condition that tells them apart may be missing. Equal values may be shown once. Read-outs that look alike come from different tables or passages of the source.

Turning to `O=[N+]([O-])c1cc(CN2CCOCC2)c2cccnc2c1O` [Compound 10, 4-((8-hydroxy-7-nitroquinolin-1-ium-5-yl)methyl)morpholin-4-ium chloride], at EphrinB2-EphB4, the “EphB4 Inhibition Percent, Inhibition of Association ONLY” value is 0.1% and 0% and 4.1%. For the same compound, the “EphB4 Inhibition Percent, Inhibition of Association-Dissociation” value at EphrinB2-EphB4 is 9.0% and 0% and 5.9%. The 50% inhibitory concentration (IC50) at EphrinB2-EphB2 [1] (setting [3]), at EphrinB2-EphB2 [1] (setting [4]), at EphrinB2-EphB2 [1] (setting [5]), at EphrinB2-EphB2 [1] (setting [6]), on EphrinB2-EphB2 [1] (setting [7]) and at EphrinB2-EphB2 [1] (setting [8]) was more than 1600 nM throughout. The “% Inhibition: Association + Dissociation (160 sec)” value on EphrinB2-EphB2 [2] (setting [9]) worked out at 24.2%. Besides, the “% Inhibition: Association ONLY (80 sec)” value at EphrinB2-EphB2 [2] (setting [9]) is given as 11.6%. Moreover, the “EphB2 Inhibition Percent, Inhibition of Association ONLY” value at EphrinB2-EphB2 [2] was 9.2% and 11.6% and 16.5%. The “EphB2 Inhibition Percent, Inhibition of Association-Dissociation” value on EphrinB2-EphB2 [2] was 24.5% and 24.2% and 21.0%.

As to `OCc1ccc2c(CN3CCOCC3)cc(Br)c(O)c2n1` [Compound 13, 7-bromo-2-(hydroxymethyl)-5-(morpholinomethyl)quinolin-8-ol], the inhibition at 3.2 µM amounted to 7.6% at EphrinB2-EphB4 (read-out: % Inhibition: Association + Dissociation (160 sec)); 0% on EphrinB2-EphB4 (read-out: % Inhibition: Association ONLY (80 sec)); 68.4% on EphrinB2-EphB2 [2] (EphB2, 25 nM EphB2, 3.2 μM compound, A20-I as max control, 0* = less than 0, no inhibition, read-out: % Inhibition: Association + Dissociation (160 sec)); 50.5% on EphrinB2-EphB2 [2] (EphB2, 25 nM EphB2, 3.2 μM compound, A20-I as max control, 0* = less than 0, no inhibition, read-out: % Inhibition: Association ONLY (80 sec)). The half-maximal inhibitory concentration (IC50) at EphrinB2-EphB2 [1] (setting [3]) was more than 3200 nM; on EphrinB2-EphB2 [1] (setting [4]) it was more than 3200 nM; on EphrinB2-EphB2 [1] (setting [5]), 2510 nM; at EphrinB2-EphB2 [1] (setting [6]), 1450 nM; at EphrinB2-EphB2 [1] (setting [7]) it was 1410 nM; at EphrinB2-EphB2 [1] (setting [8]) it was 1540 nM. On EphrinB2-EphB2 [1] (tetramerization inhibitor IC50 (relative), association step, surmountable tetramer), this compound yielded a 50% inhibitory concentration (IC50) of approximately 1600 nM.

For `O=S1(=O)CCN(Cc2ccc(O)c3ncccc23)CC1` [Compound 15, 4-((8-hydroxyquinolin-1-ium-5-yl)methyl)thiomorpholin-4-ium 1,1-dioxide chloride], the “EphB4 Inhibition Percent, Inhibition of Association ONLY” value on EphrinB2-EphB4 stood at 10.8%. At EphrinB2-EphB4, the “EphB4 Inhibition Percent, Inhibition of Association-Dissociation” value is on record as 19.0%. Also, the IC50 on EphrinB2-EphB2 [1] (setting [3]) is more than 1600 nM; on EphrinB2-EphB2 [1] (setting [4]), more than 1600 nM; at EphrinB2-EphB2 [1] (setting [5]), more than 1600 nM; on EphrinB2-EphB2 [1] (setting [6]) it was 620 nM; on EphrinB2-EphB2 [1] (setting [7]) it was more than 1600 nM; on EphrinB2-EphB2 [1] (setting [8]), 1150 nM. Further, at EphrinB2-EphB2 [2], the “EphB2 Inhibition Percent, Inhibition of Association ONLY” value turned out to be 33.8%. Moreover, on EphrinB2-EphB2 [2], the “EphB2 Inhibition Percent, Inhibition of Association-Dissociation” value turned out to be 46.4%.
